Results as given in publication PMC10480161, “Identification of potent and selective N-myristoyltransferase inhibitors of Plasmodium vivax liver stage hypnozoites and schizonts” (Nature Communications, 2023).
pIC50: −log10 of the molar value. Where “and” joins values, the source holds several entries; their conditions need not be identical. Identical values can stand only once.

Experiments:
HsNMT1 = target: T1, HsNMT1 (Homo sapiens, UniProt P30419); assay: NMT activity assay (CPM detection of free CoA), HsNMT
T1 sequence (P30419 1-496): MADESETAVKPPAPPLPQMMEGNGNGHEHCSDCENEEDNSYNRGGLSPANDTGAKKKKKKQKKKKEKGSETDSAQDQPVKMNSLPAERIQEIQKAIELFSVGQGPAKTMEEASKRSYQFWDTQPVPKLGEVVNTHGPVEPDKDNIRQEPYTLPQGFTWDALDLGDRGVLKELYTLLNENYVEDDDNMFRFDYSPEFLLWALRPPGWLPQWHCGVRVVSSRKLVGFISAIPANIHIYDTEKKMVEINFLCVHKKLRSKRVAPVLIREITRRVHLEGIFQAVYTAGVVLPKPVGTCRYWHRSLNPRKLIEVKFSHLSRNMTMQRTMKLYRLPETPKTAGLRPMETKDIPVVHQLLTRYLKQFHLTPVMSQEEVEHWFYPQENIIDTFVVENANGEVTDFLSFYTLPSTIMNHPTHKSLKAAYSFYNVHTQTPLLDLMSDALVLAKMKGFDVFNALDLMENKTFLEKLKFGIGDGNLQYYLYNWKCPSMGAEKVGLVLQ

P. vivax hypnozoites = assay: P. vivax liver stage assay, hypnozoites; format: cell-based, Plasmodium vivax; details: for Hypnozoites per well: Isolate 2, replicate wells (Figure 6d); for Number of liverstage hypnozoites per well: 20 µM, 8 dpi
How it was run: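 Primary human hepatocytes infected with P. vivax sporozoites, then exposed to compound daily from day 5 to day 8 post-infection. Fixed cells stained with DAPI and PvUIS4 antibody; hypnozoites and schizonts counted by confocal imaging. MMV390048 at 20 µM served as schizont-eliminating control.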

PvNMT = PvNMT (Plasmodium vivax, UniProt A5K1A2); assay: NMT activity assay (CPM detection of free CoA), PvNMT
HepG2 cells = assay: HepG2 cytotoxicity assay (Live/Dead staining); details: replicates
How it was run: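 HepG2 cells (5000/well) treated with compounds at 1 to 20 µM, re-dosed with fresh compound every 24 h. Viability scored at 72 h by calcein-AM/ethidium homodimer (1 µM each, 10 min, 37 °C) live/dead staining under fluorescence microscopy.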

P. vivax schizonts = assay: P. vivax liver stage assay, schizonts; format: cell-based, Plasmodium vivax; details: for Number of liverstage Schizonts per well: 20 µM, 8 dpi
How it was run: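 Primary human hepatocytes (single donor, 25,000/well) infected with 14,000 P. vivax sporozoites per well from patient isolates; compounds (up to 20 µM) given daily from day 5 to day 8 post-infection. Schizonts counted by PvUIS4/DAPI confocal imaging; DAPI nuclei count used as toxicity measure.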

PvNMT, sequence (A5K1A2 entry or part of it): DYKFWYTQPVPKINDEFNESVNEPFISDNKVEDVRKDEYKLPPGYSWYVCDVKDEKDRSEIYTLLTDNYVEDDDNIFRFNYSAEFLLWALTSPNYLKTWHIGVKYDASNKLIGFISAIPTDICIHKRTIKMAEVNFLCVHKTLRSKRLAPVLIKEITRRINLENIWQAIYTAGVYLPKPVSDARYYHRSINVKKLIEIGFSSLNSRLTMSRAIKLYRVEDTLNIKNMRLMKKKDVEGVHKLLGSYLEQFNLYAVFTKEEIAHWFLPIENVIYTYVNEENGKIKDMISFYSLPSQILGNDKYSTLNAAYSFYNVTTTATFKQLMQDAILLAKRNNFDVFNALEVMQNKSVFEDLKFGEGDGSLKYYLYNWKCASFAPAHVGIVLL

In the case of `Cc1n[nH]c(C)c1CCOc1cc(F)ccc1-c1cccc(OCCN(C)C)c1` [Compound 26i], the pIC50 (HsNMT1) was 4.86, the Hypnozoites per well (P. vivax hypnozoites; 1.25 uM) was 10 and 7 and 12 and the Hypnozoites per well (P. vivax hypnozoites; 2.5 uM) was 7 and 9 and 14. For the same molecule, the Hypnozoites per well (P. vivax hypnozoites; 5 uM) was 10 and 7 and 12, the Hypnozoites per well (P. vivax hypnozoites; 10 uM) was 8 and 12 and 14 and the “Number of liverstage hypnozoites per well” value (P. vivax hypnozoites; isolate 1, technical replicates (Fig. 6C)) was 8 per well and 6 per well (2×). The “Number of liverstage hypnozoites per well” value (P. vivax hypnozoites; isolate 2, technical replicates (Fig. 6C)) was 8 per well and 6 per well (2×), the “Number of liverstage hypnozoites per well” value (P. vivax hypnozoites; isolate 3, technical replicates (Fig. 6C)) was 0 per well and the Hypnozoites per well (P. vivax hypnozoites; 20 uM) was 8 and 6 (2×). For the same molecule, the pIC50 (P. vivax hypnozoites; Plasmodium vivax, Hepatocyte, 120 h, primary human hepatocytes, treatment day 5 to 8 post-infection, isolate 2) was 4.96, the “hypnozoites (fold change to DMSO) mean diff” value (P. vivax hypnozoites; isolate 1, 20 µM) was 1.000 and the “hypnozoites (fold change to DMSO) mean diff” value (P. vivax hypnozoites; isolate 2, 20 µM) was 0.310. The pIC50 (PvNMT; PvNMT IC50, mean of two or more determinations) was 6.62, the SI (PvNMT; enzyme selectivity, HsNMT IC50/PvNMT IC50) was 57 and the “Percentage of live HepG2 cells compared with diluent controls” value (from here on “Percentage of live HepG2 cells”) (HepG2 cells; 1 μM) was 96.6401% and 97.1078%. The “Percentage of live HepG2 cells” value (HepG2 cells; 2.5 μM) was 90.0917%, the “Percentage of live HepG2 cells” value (HepG2 cells; 5 μM) was 95.2109% and 86.8435% and the “Percentage of live HepG2 cells” value (HepG2 cells; 10 μM) was 86.5317% and 90.6634%. The “Percentage of live HepG2 cells” value (HepG2 cells; 20 μM) was 79.0479% and 88.1213%, the “Number of liverstage Schizonts per well” value (P. vivax schizonts; isolate 1, technical replicates (Fig. 5b)) was 2 per well (2×) and 0 per well and the “Number of liverstage Schizonts per well” value (P. vivax schizonts; isolate 2, technical replicates (Fig. 5b)) was 2 per well (2×) and 4 per well. The “Number of liverstage Schizonts per well” value (P. vivax schizonts; isolate 3, technical replicates (Fig. 5b)) was 3 per well and 2 per well, the Schizonts per well (P. vivax schizonts; Isolate 2, 1.25 uM) was 14 per well and 13 per well and the Schizonts per well (P. vivax schizonts; Isolate 2, 2.5 uM) was 14 per well and 11 per well and 12 per well. The Schizonts per well (P. vivax schizonts; Isolate 2, 5 uM) was 10 per well and 9 per well and 7 per well, the Schizonts per well (P. vivax schizonts; Isolate 2, 20 uM (Fig. 5c-d)) was 2 per well and 4 per well and the Schizonts per well (P. vivax schizonts; Isolate 3, 1.25 uM) was 12 per well and 13 per well. For the same molecule, the Schizonts per well (P. vivax schizonts; Isolate 3, 2.5 uM) was 10 per well and 9 per well, the Schizonts per well (P. vivax schizonts; Isolate 3, 5 uM) was 8 per well and 9 per well and the Schizonts per well (P. vivax schizonts; Isolate 3, 20 uM (Fig. 5c-d)) was 3 per well and 2 per well. The pIC50 (P. vivax schizonts; Plasmodium vivax, Hepatocyte, 120 h, primary human hepatocytes, treatment day 5 to 8 post-infection, isolates 2 and 3) was 5.28 to 5.48, the “schizonts (fold change to DMSO) mean diff” value (P. vivax schizonts; isolate 1, 20 µM) was 0.933 and the “schizonts (fold change to DMSO) mean diff” value (P. vivax schizonts; isolate 2, 20 µM) was 0.8491. The “schizonts (fold change to DMSO) mean diff” value (P. vivax schizonts; isolate 3, 20 µM) was 0.8295.
